Measurements as given in patent publication US20110082130A1 (LIGAND PHARMACEUTICALS, INC., priority 2006, published 2011).

Biological target: T1, chimeric human H3 receptor (Homo sapiens, UniProt Q9Y5N1)
T1 construct: made in house; host or cells: Sf9 insect cells (baculovirus); P2 membrane preparation
Assay: Chimeric human H3 receptor GTP binding assay (agonist-stimulated GTP-gamma35S binding, Example 7)
Type: biochemical
Settings: assay of Example 7
Procedure, shortened: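 Sf9 membranes co-expressing chimeric human H3 receptor and heterotrimeric G-protein, 35 μg/tube, in pH 7.4 Tris buffer with 10 μM GDP. Test compounds (10^−10–10^−6 M) competed against 1 μM histamine, […] GTP-gamma35S, 60 min at room temperature. Filter-bound radioactivity counted; IC50 converted to Ki by Cheng-Prusoff. Agonism/inverse agonism tested without histamine (EC50).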

T1 sequence (Q9Y5N1 with tags, fused parts or gaps): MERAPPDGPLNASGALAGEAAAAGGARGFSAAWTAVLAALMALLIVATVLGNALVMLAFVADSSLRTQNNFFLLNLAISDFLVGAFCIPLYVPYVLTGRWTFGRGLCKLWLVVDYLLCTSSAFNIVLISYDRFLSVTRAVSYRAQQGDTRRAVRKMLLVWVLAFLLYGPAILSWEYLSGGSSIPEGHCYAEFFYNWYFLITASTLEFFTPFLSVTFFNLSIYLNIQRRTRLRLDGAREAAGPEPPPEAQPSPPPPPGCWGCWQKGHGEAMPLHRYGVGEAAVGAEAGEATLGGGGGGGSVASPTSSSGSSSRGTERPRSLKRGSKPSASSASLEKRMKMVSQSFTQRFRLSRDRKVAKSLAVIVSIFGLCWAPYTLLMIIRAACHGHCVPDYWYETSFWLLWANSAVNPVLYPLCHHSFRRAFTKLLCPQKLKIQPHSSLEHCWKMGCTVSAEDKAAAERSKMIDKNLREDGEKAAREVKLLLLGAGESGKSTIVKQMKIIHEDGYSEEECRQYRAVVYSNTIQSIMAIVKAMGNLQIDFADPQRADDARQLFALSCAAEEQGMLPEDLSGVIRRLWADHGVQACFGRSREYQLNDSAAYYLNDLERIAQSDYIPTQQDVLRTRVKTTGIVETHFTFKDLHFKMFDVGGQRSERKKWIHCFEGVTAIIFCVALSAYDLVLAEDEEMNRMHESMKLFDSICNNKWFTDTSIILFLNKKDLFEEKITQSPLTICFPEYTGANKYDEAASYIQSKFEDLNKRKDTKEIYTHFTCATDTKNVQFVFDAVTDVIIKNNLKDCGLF

Ki (Table II "Ki", symbol *) | Ki (Table II) | Structure (SMILES)
< 1000 nM | – | O=C(CN1CCc2nc(NCC3CCCCC3)ccc2C1)N1CCN(C2CCC2)CC1 [Compound 659, 6-[2-(4-cyclobutylpiperazin-1-yl)-2-oxoethyl]-N-(cyclohexylmethyl)-5,6,7,8-tetrahydro-1,6-naphthyridin-2-amine]
< 1000 nM | – | CCC(CC)CNc1ccc2c(n1)CCN(CC(=O)N1CCN(C3CCC3)CC1)C2 [Compound 660, 6-[2-(4-cyclobutylpiperazin-1-yl)-2-oxoethyl]-N-(2-ethylbutyl)-5,6,7,8-tetrahydro-1,6-naphthyridin-2-amine]
< 1000 nM | – | CC(C)C(C)Nc1ccc2c(n1)CCN(CC(=O)N1CCN(C3CCC3)CC1)C2 (centres unmarked) [Compound 661, 6-[2-(4-cyclobutylpiperazin-1-yl)-2-oxoethyl]-N-(1,2-dimethylpropyl)-5,6,7,8-tetrahydro-1,6-naphthyridin-2-amine]
< 1000 nM | – | CCC(CC)Nc1ccc2c(n1)CCN(CC(=O)N1CCN(C3CCC3)CC1)C2 [Compound 662, 6-[2-(4-cyclobutylpiperazin-1-yl)-2-oxoethyl]-N-(1-ethylpropyl)-5,6,7,8-tetrahydro-1,6-naphthyridin-2-amine]
< 1000 nM | – | COCCNc1ccc2c(n1)CCN(CC(=O)N1CCN(C3CCC3)CC1)C2 [Compound 663, 6-[2-(4-cyclobutylpiperazin-1-yl)-2-oxoethyl]-N-(2-methoxyethyl)-5,6,7,8-tetrahydro-1,6-naphthyridin-2-amine]
< 1000 nM | – | COCCCNc1ccc2c(n1)CCN(CC(=O)N1CCN(C3CCC3)CC1)C2 [Compound 664, 6-[2-(4-cyclobutylpiperazin-1-yl)-2-oxoethyl]-N-(3-methoxypropyl)-5,6,7,8-tetrahydro-1,6-naphthyridin-2-amine]
< 1000 nM | – | CCC(COC)Nc1ccc2c(n1)CCN(CC(=O)N1CCN(C3CCC3)CC1)C2 (centres unmarked) [Compound 666, 6-[2-(4-cyclobutylpiperazin-1-yl)-2-oxoethyl]-N-[1-(methoxymethyl)propyl]-5,6,7,8-tetrahydro-1,6-naphthyridin-2-amine]
< 1000 nM | – | CCOCCNc1ccc2c(n1)CCN(CC(=O)N1CCN(C3CCC3)CC1)C2 [Compound 667, 6-[2-(4-cyclobutylpiperazin-1-yl)-2-oxoethyl]-N-(2-ethoxyethyl)-5,6,7,8-tetrahydro-1,6-naphthyridin-2-amine]
< 1000 nM | – | CO[C@H]1CCN(c2ccc3c(n2)CCN(CC(=O)N2CCN(C4CCC4)CC2)C3)C1 [Compound 670, 6-[2-(4-cyclobutylpiperazin-1-yl)-2-oxoethyl]-2-[(3S)-3-methoxypyrrolidin-1-yl]-5,6,7,8-tetrahydro-1,6-naphthyridine]
< 1000 nM | – | COCCC1CCN(c2ccc3c(n2)CCN(CC(=O)N2CCN(C4CCC4)CC2)C3)CC1 [Compound 672, 6-[2-(4-cyclobutylpiperazin-1-yl)-2-oxoethyl]-2-[4-(2-methoxyethyl)piperidin-1-yl]-5,6,7,8-tetrahydro-1,6-naphthyridine]
< 1000 nM | – | COCC1CCN(c2ccc3c(n2)CCN(CC(=O)N2CCN(C4CCC4)CC2)C3)CC1 [Compound 673, 6-[2-(4-cyclobutylpiperazin-1-yl)-2-oxoethyl]-2-[4-(methoxymethyl)piperidin-1-yl]-5,6,7,8-tetrahydro-1,6-naphthyridine]
< 1000 nM | – | COCCC1CCCN(c2ccc3c(n2)CCN(CC(=O)N2CCN(C4CCC4)CC2)C3)C1 (centres unmarked) [Compound 674, 6-[2-(4-cyclobutylpiperazin-1-yl)-2-oxoethyl]-2-[3-(2-methoxyethyl)piperidin-1-yl]-5,6,7,8-tetrahydro-1,6-naphthyridine]
< 1000 nM | – | N#CCC1CCN(c2ccc3c(n2)CCN(CC(=O)N2CCN(C4CCC4)CC2)C3)CC1 [Compound 675, (1-{6-[2-(4-cyclobutylpiperazin-1-yl)-2-oxoethyl]-5,6,7,8-tetrahydro-1,6-naphthyridin-2-yl}piperidin-4-yl)acetonitrile]
< 1000 nM | – | CC1CCCCN1c1ccc2c(n1)CCN(CC(=O)N1CCN(C3CCC3)CC1)C2 (centres unmarked) [Compound 676, 6-[2-(4-cyclobutylpiperazin-1-yl)-2-oxoethyl]-2-(2-methylpiperidin-1-yl)-5,6,7,8-tetrahydro-1,6-naphthyridine]
< 1000 nM | – | CN(c1ccc2c(n1)CCN(CC(=O)N1CCN(C3CCC3)CC1)C2)C1CCCCC1 [Compound 677, 6-[2-(4-cyclobutylpiperazin-1-yl)-2-oxoethyl]-N-cyclohexyl-N-methyl-5,6,7,8-tetrahydro-1,6-naphthyridin-2-amine]
< 1000 nM | – | COC[C@@H]1CCCN1c1ccc2c(n1)CCN(CC(=O)N1CCN(C3CCC3)CC1)C2 [Compound 678, 6-[2-(4-cyclobutylpiperazin-1-yl)-2-oxoethyl]-2-[(2S)-2-(methoxymethyl)pyrrolidin-1-yl]-5,6,7,8-tetrahydro-1,6-naphthyridine]
< 1000 nM | – | COC[C@H]1CCCN1c1ccc2c(n1)CCN(CC(=O)N1CCN(C3CCC3)CC1)C2 [Compound 679, 6-[2-(4-cyclobutylpiperazin-1-yl)-2-oxoethyl]-2-[(2R)-2-(methoxymethyl)pyrrolidin-1-yl]-5,6,7,8-tetrahydro-1,6-naphthyridine]
< 1000 nM | – | COC1CCN(c2ccc3c(n2)CCN(CC(=O)N2CCN(C4CCC4)CC2)C3)CC1 [Compound 681, 6-[2-(4-cyclobutylpiperazin-1-yl)-2-oxoethyl]-2-(4-methoxypiperidin-1-yl)-5,6,7,8-tetrahydro-1,6-naphthyridine]
– | < 1000 nM | O=C(CN1CCc2nc(N3CCCC(C(F)(F)F)C3)ccc2C1)N1CCN(C2CCC2)CC1 (centres unmarked) [Compound 682, 6-[2-(4-cyclobutylpiperazin-1-yl)-2-oxoethyl]-2-[3-(trifluoromethyl)piperidin-1-yl]-5,6,7,8-tetrahydro-1,6-naphthyridine]
– | < 1000 nM | N#Cc1ccc(-c2ncc3c(n2)CCN(CC(=O)N2CCN(C4CCC4)CC2)C3)cc1 [Compound 683, 4-{6-[2-(4-cyclobutylpiperazin-1-yl)-2-oxoethyl]-5,6,7,8-tetrahydropyrido[4,3-d]pyrimidin-2-yl]benzonitrile]
– | < 1000 nM | O=C(CN1CCc2nn(C3CCCC3)cc2C1)N1CCN(C2CCC2)CC1 [Compound 684, 5-[2-(4-cyclobutylpiperazin-1-yl)-2-oxoethyl]-2-cyclopentyl-4,5,6,7-tetrahydro-2H-pyrazolo[4,3-c] pyridine]
– | < 1000 nM | O=C(CN1CCc2nn(C3CCOCC3)cc2C1)N1CCN(C2CCC2)CC1 [Compound 685]
– | < 1000 nM | N#Cc1cnc(-n2cc3c(n2)CCN(CC(=O)N2CCN(C4CCC4)CC2)C3)nc1 [Compound 686, 2-{5-[2-(4-cyclobutylpiperazin-1-yl)-2-oxoethyl]-4,5,6,7-tetrahydro-2H-pyrazolo[4,3-c]pyridin-2-yl}pyrimidine-5-carbonitrile]
– | < 1000 nM | N#Cc1ccc(-n2cc3c(n2)CCN(CC(=O)N2CCN(C4CCC4)CC2)C3)nc1 [Compound 687, 6-{5-[2-(4-cyclobutylpiperazin-1-yl)-2-oxoethyl]-4,5,6,7-tetrahydro-2H-pyrazolo[4,3-c]pyridin-2-yl}nicotinonitrile]
– | < 1000 nM | O=C(CN1CCc2nn(-c3ccc4nncn4n3)cc2C1)N1CCN(C2CCC2)CC1 [Compound 688, 6-{5-[2-(4-cyclobutylpiperazin-1-yl)-2-oxoethyl]-4,5,6,7-tetrahydro-2H-pyrazolo[4,3-c]pyridin-2-yl}[1,2,4]triazolo[4,3-b]pyridazine]
– | < 1000 nM | Cc1nnc2ccc(-n3cc4c(n3)CCN(CC(=O)N3CCN(C5CCC5)CC3)C4)nn12 [Compound 689, 6-{5-[2-(4-cyclobutylpiperazin-1-yl)-2-oxoethyl]-4,5,6,7-tetrahydro-2H-pyrazolo[4,3-c]pyridin-2-y1}-3-methyl[1,2,4]triazolo [4,3-b]pyridazine]
– | < 1000 nM | N#CC1CCN(c2ncc3c(n2)CCN(CC(=O)N2CCN(C4CCC4)CC2)C3)CC1 [Compound 690, 1-{6-[2-(4-cyclobutylpiperazin-1-yl)-2-oxoethyl]-5,6,7,8-tetrahydropyrido[4,3-d]pyrimidin-2-yl}piperidine-4-carbonitrile]
– | < 1000 nM | NC(=O)C1CCN(c2ncc3c(n2)CCN(CC(=O)N2CCN(C4CCC4)CC2)C3)CC1 [Compound 691, 1-{6-[2-(4-cyclobutylpiperazin-1-yl)-2-oxoethyl]-5,6,7,8-tetrahydropyrido[4,3-d]pyrimidin-2-yl}piperidine-4-carboxamide]
– | < 1000 nM | Cc1nc(N2CCOCC2)nc2c1CN(CC(=O)N1CCN(C3CCC3)CC1)CC2 [Compound 692, 6-[2-(4-cyclobutylpiperazin-1-yl)-2-oxoethyl]-4-methyl-2-morpholin-4-yl-5,6,7,8-tetrahydropyrido[4,3-d]pyrimidine]
